Laboratory results reported in PubChem BioAssay AID248 (DTP/NCI, 2004).
Values joined by “and” are separate entries in the source; they are usually repeats but may differ in a detail not shown here. Equal entries are not always repeated. Toxic doses and inconclusive results are not listed. Rule as the data show it: active = T/C of 150% or more; inactive = T/C below 125%.

Tested on: L1210 leukemia ip in BDF1 mice, survival T/C
Assay: NCI In Vivo Anticancer Drug Screen. Data for tumor model L1210 Leukemia (intraperitoneal) in B6D2F1 (BDF1) mice
Details: endpoint: mean survival time, higher = longer survival
Method in brief: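 Mice bearing the transplanted tumor received compound or vehicle. Survival of the treated group was divided by that of the vehicle-treated control group to give the ratio.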

[1] = dose: 100.0 mg/kg/injection, schedule: Q01DX009 (ip), vehicle: saline with Tween-80
[2] = dose: 100.0 mg/kg/injection, schedule: Q04DX003 (ip), vehicle: saline with Tween-80
[3] = dose: 200.0 mg/kg/injection, schedule: Q01DX009 (ip), vehicle: saline with Tween-80
[4] = dose: 200.0 mg/kg/injection, schedule: Q04DX003 (ip), vehicle: saline with Tween-80
[5] = dose: 400.0 mg/kg/injection, schedule: Q04DX003 (ip), vehicle: saline with Tween-80
[6] = dose: 100.0 mg/kg/injection, schedule: Q01DX001 (ip), vehicle: acetone
[7] = dose: 200.0 mg/kg/injection, schedule: Q01DX009 (ip), vehicle: Klucel (hydroxypropylcellulose) (HPC)
[8] = dose: 400.0 mg/kg/injection, schedule: Q01DX009 (ip), vehicle: Klucel (hydroxypropylcellulose) (HPC)
[9] = dose: 50.0 mg/kg/injection, schedule: Q01DX001 (ip), vehicle: saline
[10] = dose: 100.0 mg/kg/injection, schedule: Q01DX001 (ip), vehicle: saline
[11] = dose: 100.0 mg/kg/injection, schedule: Q01DX009 (ip), vehicle: saline
[12] = dose: 100.0 mg/kg/injection, schedule: Q04DX003 (ip), vehicle: saline
[13] = dose: 200.0 mg/kg/injection, schedule: Q01DX001 (ip), vehicle: saline
[14] = dose: 200.0 mg/kg/injection, schedule: Q01DX009 (ip), vehicle: saline
[15] = dose: 200.0 mg/kg/injection, schedule: Q04DX003 (ip), vehicle: saline
[16] = dose: 400.0 mg/kg/injection, schedule: Q01DX001 (ip), vehicle: saline
[17] = dose: 400.0 mg/kg/injection, schedule: Q01DX009 (ip), vehicle: saline
[18] = dose: 400.0 mg/kg/injection, schedule: Q04DX003 (ip), vehicle: saline
[19] = dose: 100.0 mg/kg/injection, schedule: Q01DX009 (ip), vehicle: Klucel (hydroxypropylcellulose) (HPC)

Measured: T/C

FCCBr
inactive: dose: 3.12 mg/kg/injection, schedule: Q04DX003 (ip), vehicle: saline 104 % of control | dose: 6.25 mg/kg/injection, schedule: Q04DX003 (ip), vehicle: saline 104 % of control | dose: 12.5 mg/kg/injection, schedule: Q01DX009 (ip), vehicle: water 100 % of control | dose: 12.5 mg/kg/injection, schedule: Q04DX003 (ip), vehicle: saline 107 % of control | dose: 25.0 mg/kg/injection, schedule: Q04DX003 (ip), vehicle: saline 112 % of control | dose: 25.0 mg/kg/injection, schedule: Q04DX003 (ip), vehicle: water 97 % of control | dose: 100.0 mg/kg/injection, schedule: Q04DX003 (ip), vehicle: water 112 % of control

CCOC(=O)NCCc1ccc(OC)c(OC)c1
inactive: [1] 92 % of control | [2] 97 % of control | [3] 91 % of control | [4] 112 % of control | dose: 400.0 mg/kg/injection, schedule: Q01DX009 (ip), vehicle: saline with Tween-80 96 % of control | [5] 102 % of control

OC/C=C/Cl
inactive: dose: 25.0 mg/kg/injection, schedule: Q01DX001 (ip), vehicle: acetone 106 % of control | dose: 50.0 mg/kg/injection, schedule: Q01DX001 (ip), vehicle: acetone 97 % of control | [6] 98 % of control

COc1cc(C)ccc1C(=O)CCCC(=O)O
inactive: dose: 100.0 mg/kg/injection, schedule: Q01DX001 (ip), vehicle: Klucel (hydroxypropylcellulose) (HPC) 106 % of control | dose: 100.0 mg/kg/injection, schedule: Q04DX003 (ip), vehicle: Klucel (hydroxypropylcellulose) (HPC) 105 % of control | dose: 200.0 mg/kg/injection, schedule: Q01DX001 (ip), vehicle: Klucel (hydroxypropylcellulose) (HPC) 98 % of control | [7] 97 % of control | dose: 200.0 mg/kg/injection, schedule: Q04DX003 (ip), vehicle: Klucel (hydroxypropylcellulose) (HPC) 102 % of control | dose: 400.0 mg/kg/injection, schedule: Q01DX001 (ip), vehicle: Klucel (hydroxypropylcellulose) (HPC) 98 % of control | [8] 98 % of control | dose: 400.0 mg/kg/injection, schedule: Q04DX003 (ip), vehicle: Klucel (hydroxypropylcellulose) (HPC) 103 % of control

O=C(Nc1ccc(S(=O)(=O)O)cc1)c1ccc([N+](=O)[O-])cc1
inactive: [9] 92 % of control | [10] 103 % of control | [11] 95 % of control | [12] 100 % of control | [13] 97 % of control | [14] 102 % of control | [15] 91 % of control | [16] 97 % of control | [17] 100 % of control | [18] 100 % of control

C/C(=N/N=C(N)N)c1ccc(/C(C)=N/N=C(N)N)cc1
inactive: dose: 3.75 mg/kg/injection, schedule: Q01DX Z (ip), vehicle: saline 95 % of control | dose: 7.5 mg/kg/injection, schedule: Q01DX Z (ip), vehicle: carboxymethylcellulose (CMC) 100 % of control | dose: 7.5 mg/kg/injection, schedule: Q01DX Z (ip), vehicle: saline 101 % of control | dose: 15.0 mg/kg/injection, schedule: Q01DX Z (ip), vehicle: carboxymethylcellulose (CMC) 107 % of control | dose: 15.0 mg/kg/injection, schedule: Q01DX Z (ip), vehicle: saline 110 % of control and 112 % of control | dose: 30.0 mg/kg/injection, schedule: Q01DX Z (ip), vehicle: carboxymethylcellulose (CMC) 117 % of control | dose: 30.0 mg/kg/injection, schedule: Q01DX Z (ip), vehicle: saline 112 % of control | dose: 480.0 mg/kg/injection, schedule: Q01DX009 (oral), vehicle: saline 93 % of control | dose: 960.0 mg/kg/injection, schedule: Q01DX009 (oral), vehicle: saline 93 % of control

O=C(O)C(F)(F)F
inactive: dose: 50.0 mg/kg/injection, schedule: Q01DX001 (ip), vehicle: water 112 % of control | dose: 50.0 mg/kg/injection, schedule: Q01DX001 (iv), vehicle: water 116 % of control | [10] 102 % of control | dose: 100.0 mg/kg/injection, schedule: Q01DX001 (iv), vehicle: water 114 % of control | [11] 100 % of control | dose: 100.0 mg/kg/injection, schedule: Q04DX002 (ip), vehicle: saline 96 % of control and 98 % of control | [12] 95 % of control | [13] 104 % of control | [14] 95 % of control and 96 % of control | dose: 200.0 mg/kg/injection, schedule: Q04DX002 (ip), vehicle: saline 94 % of control and 89 % of control | [15] 93 % of control | [16] 98 % of control | [17] 98 % of control and 90 % of control | dose: 400.0 mg/kg/injection, schedule: Q04DX002 (ip), vehicle: saline 93 % of control and 94 % of control | [18] 91 % of control

O=P(O)(c1cccc(Cl)c1)c1cccc(Cl)c1
inactive: [6] 91 % of control | dose: 100.0 mg/kg/injection, schedule: Q04DX003 (ip), vehicle: acetone 97 % of control | dose: 200.0 mg/kg/injection, schedule: Q01DX001 (ip), vehicle: acetone 96 % of control | dose: 200.0 mg/kg/injection, schedule: Q04DX003 (ip), vehicle: acetone 107 % of control | dose: 400.0 mg/kg/injection, schedule: Q01DX001 (ip), vehicle: acetone 91 % of control | dose: 400.0 mg/kg/injection, schedule: Q04DX003 (ip), vehicle: acetone 97 % of control

c1ccc(OP2OCCO2)cc1
inactive: dose: 50.0 mg/kg/injection, schedule: Q01DX009 (ip), vehicle: saline 92 % of control | dose: 50.0 mg/kg/injection, schedule: Q04DX003 (ip), vehicle: saline 105 % of control | [11] 102 % of control | [12] 102 % of control | [14] 92 % of control | [15] 103 % of control

NS(=O)(=O)c1ccc(N=Cc2ccc3c(c2)OCO3)cc1
inactive: [19] 94 % of control | [7] 92 % of control | [8] 97 % of control

CN(C)CCN(C)N=Nc1c(-c2cccs2)n[nH]c1C(F)(F)F
inactive: dose: 75.0 mg/kg/injection, schedule: Q01DX001 (ip), vehicle: other 94 % of control | dose: 150.0 mg/kg/injection, schedule: Q01DX001 (ip), vehicle: other 98 % of control | dose: 300.0 mg/kg/injection, schedule: Q01DX001 (ip), vehicle: other 93 % of control

CCCCCCCCCCC[As](=O)(O)O
inactive: dose: 12.5 mg/kg/injection, schedule: Q01DX001 (ip), vehicle: carboxymethylcellulose (CMC) 108 % of control | dose: 25.0 mg/kg/injection, schedule: Q01DX001 (ip), vehicle: carboxymethylcellulose (CMC) 96 % of control | dose: 50.0 mg/kg/injection, schedule: Q01DX001 (ip), vehicle: carboxymethylcellulose (CMC) 104 % of control

CC(=O)Nn1cnc2c(SCc3ccccc3)ncnc21
inactive: dose: 100.0 mg/kg/injection, schedule: Q01DX001 (ip), vehicle: other 96 % of control | dose: 177.0 mg/kg/injection, schedule: Q01DX001 (ip), vehicle: other 105 % of control | dose: 200.0 mg/kg/injection, schedule: Q01DX001 (ip), vehicle: other 100 % of control | dose: 266.0 mg/kg/injection, schedule: Q01DX001 (ip), vehicle: other 115 % of control

C=CCSc1nc2c(=O)[nH]c(N)nc2n1C1OC(CO)C(O)C1O (centres undefined)
inactive: dose: 100.0 mg/kg/injection, schedule: Q01DX005 (ip), vehicle: saline 100 % of control | dose: 200.0 mg/kg/injection, schedule: Q01DX005 (ip), vehicle: saline 103 % of control

CC(=O)NC(CSCc1c2ccccc2c(C)c2ccccc12)C(=O)O (centres undefined)
inactive: dose: 25.0 mg/kg/injection, schedule: Q01DX009 (ip), vehicle: saline with Tween-80 97 % of control | dose: 50.0 mg/kg/injection, schedule: Q01DX009 (ip), vehicle: saline with Tween-80 101 % of control | [1] 97 % of control and 92 % of control | [2] 94 % of control | [3] 88 % of control | [4] 96 % of control | [5] 96 % of control

O=Nc1nc2ncccn2c1-c1ccccc1
inactive: [9] 97 % of control | [10] 101 % of control | [13] 103 % of control | [16] 109 % of control

O=C(Nc1ccc(F)cc1)OCCOc1ccc(Br)cc1
inactive: [19] 95 % of control | [7] 98 % of control | [8] 102 % of control
